Assay [1] concerns the target LMP7 subunit of the immunoproteasome (Homo sapiens, UniProt P28062). Conditions: background, Singh et al 2011; cited from earlier work.
Assay [2] has as its target Beta5 (purified human constitutive proteasome) (Homo sapiens, UniProt P28074). The assay is described as follows: Determination of Beta5 activity (fluorescence intensity assay, Suc-LLVY-AMC). Format: biochemical. As to conditions: incubation for 20 minutes at 25° C.; concentrations 30 μM to 15 pM; read-out: Beta5 IC50. As to the method:
Determination of Beta5 Activity:
Measurement of Beta5 inhibition is performed in 384 well format based on fluorescence intensity assay.
(§1) Purified human constitutive proteasome (1.25 nM) and serial diluted compounds in DMSO (range of concentrations from 30 μM to 15 pM) or controls are incubated for 20 minutes or 120 minutes (long incubation) at 25° C. in assay buffer containing 50 mM Tris pH 7.4, 0.03% SDS, 1 mM EDTA and 1% DMSO. The reaction is initiated by the addition of the fluorogenic peptide substrate, Suc-LLVY-AMC (Bachem 1-1395), at a concentration of 40 μM. After 60 minutes of incubation at 37° C., fluorescence intensity is measured at λex=350 nm and λem=450 nm with a fluorescence reader (Perkin Elmer Envision reader or equivalent).
(§2) Unless indicated otherwise the results are obtained after incubation for 20 minutes.

The target in assay [3] is LMP7 (purified human immuno proteasome) (Homo sapiens, UniProt P28062). The experiment in a line: Determination of LMP7 activity (fluorescence intensity assay, Suc-LLVY-AMC). Format: biochemical. Conditions: incubation for 20 minutes at 25° C.; concentrations 30 μM to 15 pM; read-out: LMP7 IC50. On the procedure:
Biological Activity Determination of LMP7 Activity:
Measurement of LMP7 inhibition is performed in 384 well format based on fluorescence intensity assay.
as §1, with “immuno” for “constitutive”, “(0.25” for “(1.25”
as §2

This is an account of results in patent US11858951B2, “Boronic acid derivatives” (Merck Patent GmbH, priority 2017, dated 2024).

Take `CC1=C(C(=O)N[C@H](C)C(=O)N[C@@H](Cc2c[nH]c3ccccc23)C(=O)N[C@@H](Cc2ccccc2)C(=O)[C@@]2(C)CO2)Cc2ccccc21` [PR-924]: the “selectivity for the LMP7 subunit of the immunoproteasome” value in assay [1] is reported as 100 fold.

What is called IC50 is the concentration at which inhibition is half-maximal. Consider `O=C(N[C@@H](CCc1ccccc1)B(O)O)[C@@H]1C[C@H]2CC[C@@H]1O2` [compound 27, [(1R)-1-{[(1S,2R,4R)-7-oxabicyclo[2.2.1]heptan-2-yl]formamido}-3-phenylpropyl]boronic acid], for which the IC50 in assay [2] was > 30 µM; in assay [3] it was 0.5 to 5 µM.

In the case of `CC(C)C[C@H](NC(=O)[C@@H]1C[C@H]2CC[C@@H]1O2)B(O)O` [compound 28, [(1R)-3-methyl-1-{[(1S,2R,4R)-7-oxabicyclo[2.2.1]heptan-2-yl]formamido}butyl]boronic acid], the IC50 in assay [2] is > 30 µM; in assay [3], 0.5 to 5 µM.
